From patent publication US5232917A, “Methods, compositions, and compounds for allosteric modulation of the GABA receptor by members of the androstane and pregnane series” (priority 1991, dated 1993)
Like-named read-outs stand apart in the source and are kept apart here.

Columns and labels:
[1] = system: strychnine-induced convulsions; conditions: 1982, cited from earlier work
[2] = 1982, cited from earlier work
[3] = system: (+)bicuculline-induced seizures; parameters: key: NP: no protection; conditions: 1982, cited from earlier work
[4] = system: metrazol-induced convulsions; parameters: key: NP: no protection; conditions: 1982, cited from earlier work
[5] = system: picrotoxin-induced convulsions; parameters: key: NP: no protection; conditions: 1982, cited from earlier work
[6] = system: maximal electroshock seizure; conditions: 1982, cited from earlier work
[7] = molecular target: T1, estrogen receptor (Bos taurus, UniProt P49884); experiment: Inhibition of 3H-estradiol binding to bovine uteral estrogen receptors; conditions: read-out: % of inhibition of 3H-estradiol binding, B, competitor 10^-6 M; 0.25 nM 3H-estradiol
T1 construct: from tissue; host or cells: bovine uterus cytosol
T1 sequence (P49884 1-596): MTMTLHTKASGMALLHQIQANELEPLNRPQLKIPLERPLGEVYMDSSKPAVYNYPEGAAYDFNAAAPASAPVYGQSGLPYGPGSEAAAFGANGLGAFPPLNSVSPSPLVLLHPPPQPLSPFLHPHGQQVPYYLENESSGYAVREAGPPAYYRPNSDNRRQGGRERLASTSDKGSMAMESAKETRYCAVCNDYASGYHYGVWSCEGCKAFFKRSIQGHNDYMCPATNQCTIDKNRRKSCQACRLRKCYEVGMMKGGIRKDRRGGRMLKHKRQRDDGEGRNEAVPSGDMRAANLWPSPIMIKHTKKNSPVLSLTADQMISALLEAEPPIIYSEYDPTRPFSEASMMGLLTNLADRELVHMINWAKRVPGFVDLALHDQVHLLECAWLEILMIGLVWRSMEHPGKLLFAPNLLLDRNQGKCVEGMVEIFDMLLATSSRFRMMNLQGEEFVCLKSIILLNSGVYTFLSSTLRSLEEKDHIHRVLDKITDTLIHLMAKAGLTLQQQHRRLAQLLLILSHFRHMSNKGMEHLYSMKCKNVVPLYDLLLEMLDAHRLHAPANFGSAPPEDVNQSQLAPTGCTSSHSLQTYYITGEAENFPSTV
Protocol: (§1) The hormonal activity of drugs described herein was further studied through testing their potential estrogenic, progestinic, mineralocorticoid and glucocorticoid activities. These activities were analyzed by monitoring the ability of the drugs to inhibit binding of the steroid hormones to their respective hormone receptors.

[8] = molecular target: GABA receptor-chloride ionophore complex (GR complex); experiment: [35S]TBPS binding modulation assay; conditions: for Max. Inhib., maximal % of specifically bound [35S]-TBPS displaced: saturating concentrations of test compound
[9] = system: GABA receptor-chloride ionophore complex (GR complex); experiment: Dissociation kinetics of [35S]TBPS in rat cerebral cortical membranes; format: binding; conditions: alphaxalone 300 nM, 3α-OH-DHP 20 nM
[10] = system: number of light/dark transitions (anxiety); conditions: Blumstein and Crawley, 1983; Crawley et al.; cited from earlier work
[11] = system: GABA receptor complex (36Cl uptake, cerebral cortical synaptoneurosomes); experiment: GABA-stimulated 36Cl uptake in rat cerebral cortical synaptoneurosomes; format: biochemical, rat (male Sprague-Dawley)
Protocol: In addition, the ability of the BZ clonazepam to modulate ^36 Cl uptake in the presence or absence of 5α-pregnandiol was evaluated.
The homogenate was diluted to a final volume of 40 mL with buffer and filtered through three layers of Nylon mesh (160 μm).
Aliquots of membrane preparation (200 μL) were preincubated at 30° C. for 10 min. The interaction was initiated by the simultaneous addition of drugs/steroids and 0.2 mL ^36 Cl (New England Nuclear Boston, Mass., 0.55 mCi/mmol, 0.8 μCi/ml) resulting in a total incubation volume of 0.4 mL. Steroids and test drugs were solubilized in dimethylsufoxide (DMSO) and added to the reaction mixture in 2 μL aliquots. An equal volume of vehicle was always included in the control reaction mixture. The mixture was gently mixed and ^36 Cl uptake terminated after 5 sec by the of 5 mL of ice cold buffer containing 100 μM picrotoxin (Sigma Chem Co.) followed immediately by rapid filtration through glass fiber filters (Whatman GF/C) under vacuum. The filters were washed twice with 5 mL of ice-cold buffer and the filter-bound radioactivity quantitated by liquid scintillation spectrophotometry. Specific uptake was calculated by subtracting the amount of ^36 Cl bound to the filters in the absence of synaptoneurosomes from that observed in their presence. Percent enhancement represents percent increase in uptake over that of basal ^36 Cl uptake. Statistical comparisons utilized the analysis of variance (ANOVA).

[12] = system: metrazol induced convulsions; experiment: Inhibition of metrazol induced convulsions (Table 2); format: in vivo, mice; conditions: Mus musculus
Protocol: Experiments were also performed to determine the physiological relevance of these interactions by measuring the ability of the compound of and used in the invention to modulate TBPS-induced convulsions in Swiss-Webster mice. […] The time to onset of myoclonus (presence of forelimb clonic activity) induced by TBPS was determined by observing each mouse for a period of 45 minutes. Significant differences between the time to onset in control mice vs. steroid-treated mice were determined by Student's t-test. […] The number of animals with tonic and/or clonic convulsions was recorded. In the maximal electroshock test, 50 mA of current at 60 Hz was delivered through corneal electrodes for 200 msec to induce tonic seizure. […] The ED50 (the dose at which the half-maximal effect occurs) was determined for each screen.
Adult male CFI mice (20-30g) were used in these studies. […] Percent protection against metrazol-induced seizures was plotted against time after administration of the compound. […] Ten to twelve mice were used per dose of test drug. […] The number of animals with tonic and/or clonic convulsions was recorded. The ability of the steroid to abolish the tonic component was defined as the endpoint. Sedative potential was determined by a rotorod test where the number of mice staying on a rotating (6 rpm) rod for ≥1 min. in each of three trials was determined.

[13] = molecular target: T2, progesterone receptor (Bos taurus, UniProt F1N712); experiment: Inhibition of 3H-progesterone binding to bovine uteral progesterone receptors
T2 construct: from tissue; host or cells: bovine uterus cytosol
T2 sequence (F1N712 1-914): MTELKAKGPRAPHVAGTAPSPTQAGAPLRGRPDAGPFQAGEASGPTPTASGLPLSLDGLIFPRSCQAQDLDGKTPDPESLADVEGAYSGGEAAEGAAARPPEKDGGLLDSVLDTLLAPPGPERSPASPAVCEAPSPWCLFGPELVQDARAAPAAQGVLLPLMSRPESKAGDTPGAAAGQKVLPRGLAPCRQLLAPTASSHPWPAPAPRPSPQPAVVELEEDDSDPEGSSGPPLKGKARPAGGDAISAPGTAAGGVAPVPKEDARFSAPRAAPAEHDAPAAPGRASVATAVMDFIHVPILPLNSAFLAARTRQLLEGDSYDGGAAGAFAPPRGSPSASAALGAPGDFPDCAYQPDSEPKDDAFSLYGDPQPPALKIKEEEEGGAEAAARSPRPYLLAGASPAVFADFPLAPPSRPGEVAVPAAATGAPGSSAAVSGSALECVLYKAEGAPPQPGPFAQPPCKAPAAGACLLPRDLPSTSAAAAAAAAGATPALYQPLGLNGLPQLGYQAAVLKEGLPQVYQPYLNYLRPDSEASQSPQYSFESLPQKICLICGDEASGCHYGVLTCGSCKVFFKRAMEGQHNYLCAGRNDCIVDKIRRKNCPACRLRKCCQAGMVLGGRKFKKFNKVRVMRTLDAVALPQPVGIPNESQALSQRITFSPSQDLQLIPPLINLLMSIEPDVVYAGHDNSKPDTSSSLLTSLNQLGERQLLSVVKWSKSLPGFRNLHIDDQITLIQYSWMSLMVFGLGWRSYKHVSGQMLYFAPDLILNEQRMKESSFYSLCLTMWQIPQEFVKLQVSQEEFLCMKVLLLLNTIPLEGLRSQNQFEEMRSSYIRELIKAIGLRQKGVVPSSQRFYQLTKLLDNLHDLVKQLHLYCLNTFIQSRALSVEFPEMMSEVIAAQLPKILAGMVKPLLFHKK
Protocol: as §1
For the data presented in Table 9, bovine uteri cytosol was isolated as they were for Table 7 and used for following binding to progesterone receptors by following the inhibition of ^3 H-progesterone, the natural ligand.

[14] = read-out: IC50, inhibition of [35S]-TBPS binding, +5 μM GABA, in the presence of 5 μM GABA
[15] = Na pentobarbital 30 μM, 2 nM [35S]TBPS
[16] = read-out: % of inhibition of 3H-progesterone binding, A, competitor 10^-5 M, 0.15 nM 3H-progesterone
[17] = read-out: % of inhibition of 3H-progesterone binding, B, competitor 10^-5 M, 0.25 nM 3H-progesterone
[18] = read-out: % of inhibition of 3H-progesterone binding, B, competitor 10^-6 M, 0.25 nM 3H-progesterone

NC(=O)CCC/N=C(\c1ccc(Cl)cc1)c1cc(F)ccc1O [Progabide]
ED50 STR (strychnine) ([1]; convulsant i.v., Worms et al.): 75 mg/kg
LD50 ([2]; Worms et al.): 3000 mg/kg
ED50 BIC (bicuculline) ([3]; convulsant i.v., Worms et al.): 30 mg/kg
ED50 MTZ (metrazol) ([4]; convulsant i.v., Worms et al.): 30 mg/kg
ED50 PICRO (picrotoxin) ([5]; convulsant i.v., Worms et al.): 105 mg/kg
ED50 MES (maximal electroshock) ([6]; Worms et al.): 75 mg/kg

CC(C)(O)[C@H]1CC[C@H]2[C@@H]3CC[C@H]4C[C@H](O)CC[C@]4(C)[C@H]3CC[C@]12C [3α,20-dihydroxy-20-methyl-5α-pregnane]
inhibition at 1 µM [7]: 0%
IC50 [8, 14]: 65 nM
Max. Inhib., maximal % of specifically bound [35S]-TBPS displaced [8]: 45%

CCCC(C)C1(CC)C(=O)NC(=O)NC1=O (stereo not drawn) [pentobarbital]
Total percentage of specific sites, rapid (R) ([9]; Na pentobarbital 30 μM): 48 ± 6%
Total percentage of specific sites, slow (S) ([9]; Na pentobarbital 30 μM): 61 ± 6%
K-1, rapidly dissociating component (R) [9, 15]: 0.158 ± 0.013 min⁻¹
K-1, slowly dissociating component (S) [9, 15]: 0.0186 ± 0.0015 min⁻¹
T1/2, rapidly dissociating component (R) [9, 15]: 4.4 ± 0.3 min
T1/2, slowly dissociating component (S) [9, 15]: 38 ± 3 min
biphasic dissociation mechanism of [35S]TBPS ([9]; pentobarbital 30 μM, FIGS. 2A, 2B): induces a biphasic dissociation mechanism
effect on number of light/dark transitions (literature) [10]: increase the number of transitions

C[C@H](O)[C@H]1CC[C@H]2[C@@H]3CC[C@H]4C[C@H](O)CC[C@]4(C)[C@H]3CC[C@]12C [5α-pregnanediol, 5α-pregnan-3α,20α-diol]
% enhancement of basal 36Cl uptake ([11]; 5α-pregnanediol (3 μM), no GABA): 2 ± 1%
maximal enhancement of GABA-stimulated 36Cl uptake above GABA alone ([11]; 5α-pregnanediol at 3 μM, GABA 25 μM, FIG. 4): approximately 30%
concentration at which potentiation of GABA-stimulated 36Cl uptake reaches a plateau ([11]; FIG. 4): 3 µM
% enhancement of basal 36Cl uptake ([11]; GABA (25 μM) + 5α-pregnanediol (3 μM)): 162±4%
% enhancement of basal 36Cl uptake ([11]; GABA (25 μM) + 5α-pregnanediol (3 μM) + clonazepam (1 μM)): 192 ± 16%
3α-OH-DHP potentiation of GABA-stimulated 36Cl uptake as antagonized by 5α-pregnanediol ([11]; from 60% to this value above GABA (25 μM) alone, 3α-OH-DHP 500 nM + 5α-pregnanediol): 31%
effect on basal 36Cl uptake ([11]; steroid alone, no GABA): no effect
inhibition at 1 µM [7]: 0%
ED50 ([12]; iv, read-out: Anti-Metrazol ED50 (iv)): 40 mg/kg
IC50 [8, 14]: 82 nM
IC50 ([8]; read-out: IC50, inhibition of [35S]-TBPS binding, No GABA, washed synaptoneurosomes, no GABA added): 359 nM
Max. Inhib., maximal % of specifically bound [35S]-TBPS displaced [8]: 52%
inhibition at 10 µM [13, 16]: 2%
inhibition at 10 µM [13, 17]: 3%
inhibition at 1 µM [13, 18]: 1%

CCC1(c2ccccc2)C(=O)NC(=O)NC1=O [Phenobarbital]
ED50 STR (strychnine) ([1]; Swinyard & Woodhead): 95 mg/kg
LD50 ([2]; Swinyard & Woodhead): 265 mg/kg
ED50 BIC (bicuculline) ([3]; Swinyard & Woodhead): 38 mg/kg
ED50 MTZ (metrazol) ([4]; Swinyard & Woodhead): 13 mg/kg
ED50 PICRO (picrotoxin) ([5]; Swinyard & Woodhead): 28 mg/kg
ED50 MES (maximal electroshock) ([6]; Swinyard & Woodhead): 22 mg/kg

O=C1NC(=O)C(c2ccccc2)(c2ccccc2)N1 [Phenytoin]
Maximum protection, STR (strychnine) ([1]; at 55-100 mg/kg, Swinyard & Woodhead): 50%
LD50 ([2]; Swinyard & Woodhead): 230 mg/kg
ED50 BIC (bicuculline) ([3]; Swinyard & Woodhead): NP
ED50 MTZ (metrazol) ([4]; Swinyard & Woodhead): NP
ED50 PICRO (picrotoxin) ([5]; Swinyard & Woodhead): NP

CCCC(CCC)C(=O)O [Valproate]
ED50 STR (strychnine) ([1]; Swinyard & Woodhead): 293 mg/kg
LD50 ([2]; Swinyard & Woodhead): 1105 mg/kg
ED50 BIC (bicuculline) ([3]; Swinyard & Woodhead): 360 mg/kg
ED50 MTZ (metrazol) ([4]; Swinyard & Woodhead): 149 mg/kg
ED50 PICRO (picrotoxin) ([5]; Swinyard & Woodhead): 387 mg/kg
ED50 MES (maximal electroshock) ([6]; Swinyard & Woodhead): 272 mg/kg

C[C@]12CC[C@@H](O)C[C@H]1CC[C@@H]1[C@@H]2CC[C@]2(C)[C@@H](C(=O)CO)CC[C@@H]12 [5β-PREGNAN-3α,21-DIOL-20-ONE]
inhibition at 1 µM [7]: 4%
ED50 ([12]; inhibition of metrazol induced convulsions, read-out: Anti-Metrazol ED50): 10 mg/kg
IC50 [8, 14]: 100 nM
Max. Inhib., maximal % of specifically bound [35S]-TBPS displaced [8]: 100%
inhibition at 10 µM [13, 16]: 19%
inhibition at 1 µM ([13]; read-out: % of inhibition of 3H-progesterone binding, A, competitor 10^-6 M, 0.15 nM 3H-progesterone): 6%
inhibition at 10 µM [13, 17]: 10%
inhibition at 1 µM [13, 18]: 2%
